“And” between values parts separate entries of the source, which are not always exact repeats. Identical values can stand only once.
Tests used:
[1] = biological target: T1, Cytosol 5-Lipoxygenase of Rat Basophile Leukemia Cells (Rattus norvegicus, UniProt P12527); assay: Cytosol 5-lipoxygenase of rat basophilic leukemia cells (RBL-2H3 preparation); assay type: biochemical; details: RBL-2H3 cytosol preparation, [14C]arachidonic acid
T1 construct: endogenous in cells; host or cells: RBL-2H3 cells (sonicate, 20,000 x g supernatant)
T1 sequence (P12527 1-673): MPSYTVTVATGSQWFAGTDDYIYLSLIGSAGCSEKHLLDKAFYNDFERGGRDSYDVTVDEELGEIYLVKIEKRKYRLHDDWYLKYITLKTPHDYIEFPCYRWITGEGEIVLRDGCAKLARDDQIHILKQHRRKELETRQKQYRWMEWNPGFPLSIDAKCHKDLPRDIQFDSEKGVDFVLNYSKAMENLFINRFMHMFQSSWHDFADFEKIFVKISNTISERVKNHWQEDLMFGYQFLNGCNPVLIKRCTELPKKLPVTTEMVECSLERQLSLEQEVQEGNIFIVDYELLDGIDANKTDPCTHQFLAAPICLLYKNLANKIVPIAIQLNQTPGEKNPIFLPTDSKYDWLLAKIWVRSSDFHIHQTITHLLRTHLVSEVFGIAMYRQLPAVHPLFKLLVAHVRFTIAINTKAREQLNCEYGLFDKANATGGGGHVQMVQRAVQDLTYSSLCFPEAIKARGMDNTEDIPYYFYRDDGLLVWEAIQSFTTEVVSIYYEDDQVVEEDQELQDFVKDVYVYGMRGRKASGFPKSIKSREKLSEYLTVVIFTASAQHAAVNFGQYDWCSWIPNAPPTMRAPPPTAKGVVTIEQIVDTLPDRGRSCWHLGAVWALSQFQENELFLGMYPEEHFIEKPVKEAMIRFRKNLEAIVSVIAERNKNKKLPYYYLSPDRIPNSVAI
Experimental: A wide variety of biological assays have also been used to evaluate the ability of a compound to inhibit the enzyme 5-lipoxygenase. For example, a cytosol 5-lipoxygenase of rat basophilic leukemia cells (RBL) has been widely utilized in studies on leukotriene biosynthesis. Compounds that inhibit 5-lipoxygenase decrease the levels of leukotrienes.
RBL-2H3 cells were grown to confluence in tissue culture flasks according to Carter et al. (J Pharm Exp Ther 256(3); 929-937, 1991). The cells were harvested and washed five times in calcium-and magnesium-free D-PBS. The cells were suspended at 2×10^7/M in 10 mM BES, 10 mM PIPES, pH 6.8, 1 mM EDTA and then sonicated. The sonicate was centrifuged at 20,000×g for 20 minutes at 4° C. The supernatant was then removed and stored in aliquots at −70° C.
The 5-LO activity in the RBL-2H3 preparation was determined as follows: 0.1 ml reactions consisting of 0.7 mM CaCl2, 100 mM NaCl, 1 mM EDTA, 10 mM BES, 10 MM PIPES, pH 7.4, varying concentrations of test compound dissolved in DMSO (7.5% DMSO final in assay), and an amount of the RBL-2H3 preparation that will convert 15% of the arachidonic acid substrate mixture to oxygenated products (determined experimentally for each RBL-2H3preparation), were incubated for 20 minutes at room temperature. The reaction was initiated by the addition of 5 μl of the arachidonic acid substrate mixture (0.944 nmol [^14C] arachidonic acid and 6.06 nmol arachidonic acid per assay in 0.028% NH4OH), and allowed to proceed for 5 minutes at 37° C. The reaction was terminated by the addition of 0.12 ml of a mixture of (i) 1.66 mg/ml triphenylphosphine in ethyl ether; (ii) methanol; and (iii) 0.2M citric acid (30:4:1); followed by centrifugation at 1000×g for 1 minute. […] The film was developed, scanned using a densitometer, and the peak areas of arachidonic acid and its product(s) are calculated. The percent inhibition was determined from the amount of [14C]-arachidonic acid converted into oxygenated products in samples containing test compound relative to that of control samples (no test compound).

[2] = tested on: 5-Lipoxygenase (LTB4 in whole blood); assay: Ex-vivo mouse whole blood 5-lipoxygenase evaluation (LTB4); assay type: in vivo; details: 3 mg/k iv, 60 minutes
Experimental: (§1) CD-1 female mice, weighing 18-25 grams, and CD female rats, weighing 150-230 grams, were obtained from Charles River Labs. Test compounds were dissolved in 0.5% DMSO in 0.9% NaCl, for administration in mice (0.5 mg/ml) and in an alcohol vehicle (2% benzyl alcohol, 1% ethanol, 40% PEG 300, 10% propylene glycol, 47% of 5% dextrose and 3.5% pluronic F-68 in DiH2O) for use in rats (5 mg/ml). […] Heparinized whole blood (0.3 ml) was added into 1.5 ml Eppendorf centrifuge tube containing […] of 2 mM calcium ionophore A23187 (the final concentration of A23187 was […]). The sample was incubated for 30 minutes in a water bath at 37° C., and then centrifuged for 2 minutes. The plasma was diluted (×120) and assayed for LTB4 using EIA.

[3] = tested on: 5-Lipoxygenase (LTB4 in whole blood); assay: Ex-vivo rat whole blood 5-lipoxygenase evaluation (LTB4); assay type: in vivo; details: 2 mg/k po
Experimental: as §1

[4] = tested on: Leukotriene B4 production in ionophore-stimulated human whole blood; assay: Inhibition of leukotriene B4 production in ionophore-stimulated human whole blood; assay type: cell-based; details: A23187 stimulated, LTB4 by EIA, read-out: HWB IC50
Experimental: Another biological assay used to evaluate the ability of a compound to inhibit the enzyme 5-lipoxygenase is based on the classic pharmacological model of inflammation induced by inhibition of LTB, from ionophore stimulated human whole blood.
Human blood was drawn into heparinized blood collection tubes, and aliquoted in 1 ml portions into 1.5 ml microfuge tubes. Test compound ([…]) of varying concentrations, dissolved in DMSO, was added to the blood sample and incubated for 15 minutes at 37° C. Calcium ionophore ([…], A23187) in DMSO was added to a final concentration of […], and the samples were incubated for 30 minutes at 37° C. Samples are then centrifuged at 1100×g (2500 rpm, H1000B rotor, in a Sorvall centrifuge) for 10 minutes at 4° C. Supernatant ([…]) was transferred into a 1.5 ml microfuge tube, […] of cold methanol added, and proteins precipitated on ice for 30 minutes. The samples were centrifuged at 110×g for 10 minutes at 4° C., and the supernatant assayed for LTB4 using a commercially available EIA kit (Cayman Chemical) according to manufacturer's specifications.

5-lipoxygenase = biological target: T2, 5-lipoxygenase (Homo sapiens, UniProt P09917); details: background statement; cited from earlier work
T2 sequence (P09917 1-674): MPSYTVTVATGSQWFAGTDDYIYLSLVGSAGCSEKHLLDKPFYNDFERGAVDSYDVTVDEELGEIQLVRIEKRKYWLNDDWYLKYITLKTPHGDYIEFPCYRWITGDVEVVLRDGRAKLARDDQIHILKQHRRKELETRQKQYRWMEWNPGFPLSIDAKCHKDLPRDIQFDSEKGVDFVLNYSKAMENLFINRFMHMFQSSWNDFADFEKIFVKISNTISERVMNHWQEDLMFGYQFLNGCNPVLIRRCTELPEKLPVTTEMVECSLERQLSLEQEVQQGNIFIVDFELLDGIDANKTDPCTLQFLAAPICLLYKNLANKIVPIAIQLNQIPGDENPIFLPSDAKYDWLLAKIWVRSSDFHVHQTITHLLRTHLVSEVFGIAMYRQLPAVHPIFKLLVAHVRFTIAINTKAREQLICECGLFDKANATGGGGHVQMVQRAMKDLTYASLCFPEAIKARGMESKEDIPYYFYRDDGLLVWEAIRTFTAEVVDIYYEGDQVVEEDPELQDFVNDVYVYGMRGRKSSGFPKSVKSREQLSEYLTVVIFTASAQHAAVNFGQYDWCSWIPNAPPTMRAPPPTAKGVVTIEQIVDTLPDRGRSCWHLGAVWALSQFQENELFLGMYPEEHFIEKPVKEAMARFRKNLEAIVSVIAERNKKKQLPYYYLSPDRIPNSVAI

PAF = PAF (Homo sapiens, UniProt P25105); details: background statement; cited from earlier work
Chain of PAF (P25105 whole entry): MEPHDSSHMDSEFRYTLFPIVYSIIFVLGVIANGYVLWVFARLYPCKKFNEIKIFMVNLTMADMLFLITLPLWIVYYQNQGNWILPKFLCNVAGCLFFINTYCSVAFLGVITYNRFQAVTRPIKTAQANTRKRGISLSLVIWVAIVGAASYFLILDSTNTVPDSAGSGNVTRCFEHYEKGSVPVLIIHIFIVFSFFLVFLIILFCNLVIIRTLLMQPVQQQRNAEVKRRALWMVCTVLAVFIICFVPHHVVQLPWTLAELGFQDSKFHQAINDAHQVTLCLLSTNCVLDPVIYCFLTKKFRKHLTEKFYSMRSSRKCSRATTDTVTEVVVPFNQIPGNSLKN

| SMILES | IC50 [1] | IC50 [4] | other results |
| --- | --- | --- | --- |
| NC(=O)N(O)CCCC[C@@H]1CC[C@@H](COc2ccc(F)cc2)O1 | 1.23 µM and 1.4 µM | – | – |
| NC(=O)N(O)CCC#C[C@@H]1CC[C@@H](COc2ccc(F)cc2)O1 | 1.38 µM and 1.49 µM and 0.56 µM and 1.6 µM and 0.72 µM | – | ex vivo LTB4 % inh. [2]: 22% |
| NC(=O)N(O)CCC#C[C@H]1CC[C@@H](COc2ccc(F)cc2)O1 | – | 0.43 µM | ex vivo LTB4 % inh. ([3]; 60 minutes): 86%; ex vivo LTB4 % inh. ([3]; 360 minutes): 63% |
| NC(=O)N(O)CCC#C[C@H]1CC[C@H](COc2ccc(F)cc2)O1 | – | 0.15 µM | – |
| COc1cc([C@H]2CC[C@H](c3cc(OC)c(OC)c(OC)c3)S2)cc(OC)c1OC (relative stereo) [L-653,150, trans-2,5-bis-(3,4,5-trimethoxyphenyl)tetrahydrothiophene] | – | – | inhibition of 5-lipoxygenase (5-lipoxygenase): moderate inhibitor of 5-lipoxygenase; PAF antagonist activity (PAF): potent PAF antagonist |
| NC(=O)N(O)CCCC[C@@H]1CCC(COc2ccc(F)cc2)O1 (single isomer, unassigned) | 0.95 µM | – | – |
